Values quoted from earlier work as cited in patent US20130065959A1, “SANITIZING MEAT WITH PERACID AND 2-HYDROXY ORGANIC ACID COMPOSITIONS” (Fresh Express Incorporated, priority 2009, published 2013).

details: cited from earlier work

Compound	Oxidation Capacity [eV]
[O][Cl+][O-] [Chlorine Dioxide]	1.57
O=[O+][O-] [Ozone]	2.07
OCl [Sodium hypochlorite (Chlorine bleach), Sodium hypochlorite]	1.36
